This note sets out measurements from patent publication US20210290648A1, “Potentiation of B-Lactam Antibiotics and B-Lactam/B-Lactamase Inhibitor Combinations Against Multidrug and Extensively Drug-Resistant Pseudomonas Aeruginosa Using Non-Ribosomal Tobramycin-Cyclam Conjugates” (University of Manitoba, priority 2018, published 2021).

The subject of data set [1] is Galleria mellonella larvae. As to the kind of experiment: Galleria mellonella tolerability study. As to conditions: 100 mg/kg; positive control. As for the experimental part: In vitro and in vivo discordances have been observed in antimicrobial chemotherapy, thus, therapeutic efficacy may not necessarily be reliably extrapolated based on in vitro data alone. […] Colistin (100 mg/kg), an antibiotic well known for its toxicity towards eukaryotes, served as a positive control for this experiment while PBS served as negative control. […] Survivability was scored for a total of 4 days.
In vivo larvae-infection model. In vivo synergistic effects were determined using Galleria mellonella infection model, as previously described (20). Briefly, worms were purchased from The Worm Lady® Live Feeder (ON, Canada), stored in their natural habitat at 16° C., and used within 10 days of delivery. The worms (average weight of 250 mg) were used for tolerability and efficacy studies. Tolerability study was performed by injecting 10 μL of antimicrobial agents only at concentrations equivalent to 100 mg/kg or 200 mg/kg. The worms (ten in each group) were incubated at 37° C. and monitored for 96 h. […] Overnight grown culture of respective MDR P. aeruginosa isolate was standardized to 0.5 McFarland standard and diluted in PBS to a final concentration of […]. 10 μL of this solution (5 CFU) was injected into each worm and incubated for 3 h at 37° C. […] Worms treated with 10 μL PBS or high concentrations of test antibiotics served as negative and positive control, respectively. The worms were incubated at 37° C. in Petri dishes lined with filter paper and scored for survivability every 6 h for up to 48 h. This experiment was repeated to give a total of thirty worms (n=30) in each case. Survival data curves were plotted using Kaplan-Meier survival analysis.

Data set [2] deals with PA 101243. As to the kind of experiment: Checkerboard combination study / MIC. It is filed as cell-based, Pseudomonas aeruginosa.
The subject of data set [3] is PA 91433. As to the kind of experiment: Checkerboard combination study / MIC. It is filed as cell-based, Pseudomonas aeruginosa.
Data set [4] concerns WT P. aeruginosa PAO1. Nature of the data set: Checkerboard combination study / MIC. Type of data set: cell-based, Pseudomonas aeruginosa. Conditions: for FICI in the presence of ≤10 μM of 1: antibiotic + compound 1; for MIC of Antibiotics in the presence of ≤10 μM of 1: antibiotic + compound 1 ≤10 μM; for FICI in the presence of ≤10 μM of 2: antibiotic + compound 2; for MIC of Antibiotics in the presence of ≤10 μM of 2: antibiotic + compound 2 ≤10 μM; for FICI in the presence of ≤10 μM of 3: antibiotic + compound 3; for MIC of Antibiotics in the presence of ≤10 μM of 3: antibiotic + compound 3 ≤10 μM.

In data set [5] the test system is PAO750. Type of data set: cell-based, Pseudomonas aeruginosa. The text has this: (§1) PAO200 is a tnexA-rnexB-oprM deletion strain while PAO750 lacks five important RND pumps (McxAB-OprM, MexCD-OprJ, MexEF-OprN, Mex JK, and MexXY) and the outer membrane protein OpmH (46, 47). Some of these pumps are homologues of broad substrate specificities that extrude different classes of antimicrobial agents and confer resistance on P. aeruginosa (48).
(§2) Antimicrobial Susceptibility Assay. The in vitro antimicrobial activity of all compounds/antibiotics against a panel of bacteria was evaluated by microbroth dilution method in accordance with the Clinical and Laboratory Standards Institute (CLSI) guidelines. Overnight grown bacterial cultures were diluted in saline to achieve a 0.5 McFarland turbidity, followed by 1:50 dilution in Mueller-Hinton broth (MHB) for inoculation to a final concentration of approximately 5×10^5CFU/mL. The antimicrobial agents were 2-fold serially diluted in MHB in a 96-well plate and incubated at 37° C. with equal volumes of inoculum for 18 h. The lowest concentration that prevented the visible growth of bacteria was defined as the MIC for each antimicrobial agent. The broth with or without bacterial cells was used as positive or negative control, respectively.
(§3) Checkerboard Assay. Combination studies with different antibiotics were performed in 96-well plates as previously described (22). Briefly, the antibiotic of interest was serially diluted in MHB along the abscissa while the adjuvant (newly synthesized conjugates) was serially diluted in MHB along the ordinate. This creates a 10×7 matrix wherein each well consists of a combination of different antibiotic and adjuvant concentrations. Overnight grown bacterial cultures were diluted in saline to achieve a 0.5 McFarland turbidity, followed by 1:50 dilution in Mueller-Hinton broth (MHB) for inoculation to a final concentration of approximately 5×10^5CFU/mL. Equal volume of this bacterial culture was then added to each well and incubated at 37° C. for 18 h. After incubation, the plates were read on EMax® Plus microplate reader (Molecular Devices, Sunnyvale, Calif., USA) at 590 nm. MIC was recorded as wells with the lowest concentration of drugs with no bacterial growth. The fractional inhibitory concentration (FIC) for each antibiotic was calculated by dividing the MIC of the antibiotic in the presence of adjuvant by the MIC of the antibiotic alone. Similarly, the FIC of adjuvant was calculated by dividing the MIC of the adjuvant in the presence of antibiotic by the MIC of the adjuvant alone. FIC index is the sum of both FICs. FIC indices of <0.5 were deemed synergistic; 0.5-4, no interaction; and >4, antagonistic.

For data set [6], the system named is PAO200. It is filed as cell-based, Pseudomonas aeruginosa.
Excerpt: as §1, §2, §3

The subject of data set [7] is PA 264. As to the kind of experiment: Checkerboard combination study / MIC. Type of data set: cell-based, Pseudomonas aeruginosa.
For data set [8], the system named is PA 101885. Nature of the data set: Checkerboard combination study / MIC. Type of data set: cell-based, Pseudomonas aeruginosa.
Data set [9] concerns PA 262. Nature of the data set: Checkerboard combination study / MIC. It is filed as cell-based, Pseudomonas aeruginosa.
The test system of data set [10] is PA 100036. Nature of the data set: Checkerboard combination study / MIC. It is filed as cell-based, Pseudomonas aeruginosa.
In data set [11] the test system is PA 259. Nature of the data set: Checkerboard combination study / MIC. It is filed as cell-based, Pseudomonas aeruginosa.
The test system of data set [12] is PA 114228. Nature of the data set: Checkerboard combination study / MIC. Type of data set: cell-based, Pseudomonas aeruginosa.
Data set [13] relates to MDR/XDR P. aeruginosa clinical isolates. Nature of the data set: MIC and checkerboard, panel of clinical isolates. It is filed as cell-based, Pseudomonas aeruginosa. Conditions: antibiotic + compound 2 (8.7 μM); resistant P. aeruginosa isolates.
For data set [14], the system named is PA 260. As to the kind of experiment: Checkerboard combination study / MIC. Type of data set: cell-based, Pseudomonas aeruginosa.
Data set [15] deals with human liver carcinoma (HepG2) cells. As to the kind of experiment: Cytotoxicity, PrestoBlue cell viability assay. Type of data set: cell-based. As to conditions: highest concentration 50 μM, 48 h. As for the experimental part: Cytotoxicity Assay. Human embryonic kidney cells (HEK293) and HepG2 cells were grown in Dulbecco's modified eagle's medium supplemented with 10% fetal bovine serum in a humidified […] incubator at 37° C. Equal number of cells (100 μl of media containing ˜8000 cells) were dispersed into 96-well plates and wells with medium but no cells were used as blanks. After incubating for 24 h, […] varying concentrations of test compounds (at twice the desired concentrations) were added to each well, including the blanks. The treated cells were then incubated further for 48 h, after which PrestoBlue reagent was added to each well. The plates were then incubated for an additional hour on a nutator mixer in a 5% CO2 incubator. The fluorescence was read at […] on a SpectraMax M2 plate reader (Molecular Devices, USA). Cell viability were interpreted as previously described (55, 77). The values of blank were subtracted from each value, and the viability values of the treated samples relative to the controls with vehicle were calculated. The values for the plots are the means±standard deviation.

Data set [16] relates to E. coli ATCC 25922. Nature of the data set: MIC, microbroth dilution. Type of data set: cell-based. Conditions: standalone. As for the experimental part:
as §2

The test system of data set [17] is MRSE CAN-ICU 61589 (CAZ >32). As to the kind of experiment: MIC, microbroth dilution. It is filed as cell-based. Conditions: standalone. The protocol: as §2
In general terms: Broth dilution looks for growth in wells or tubes with falling amounts of substance.

In data set [18] the test system is MSSE CANWARD-2008 81388. As to the kind of experiment: MIC, microbroth dilution. Type of data set: cell-based. As to conditions: standalone. The protocol: as §2
In data set [19] the test system is K. pneumoniae ATCC 13883. Nature of the data set: MIC, microbroth dilution. It is filed as cell-based, Klebsiella pneumoniae. Conditions: standalone. As for the experimental part:
as §2

Setting [20] is: MIC of antibiotic combined with compound 2.

For Colistin, the survival of larvae in data set [1] amounted to 30%. Also, the MIC of colistin in [2] (PA101243) was found to be 1024 mg/L. In data set [3] (PA91433), the MIC of colistin was 4 mg/L. In data set [4] (WT PAO1), the “FICI in the presence of ≤10 μM of 1” value is recorded as 2.00, the “MIC of Antibiotics in the presence of ≤10 μM of 1” value was determined as 2 mg/L, the “FICI in the presence of ≤10 μM of 2” value is 2.00 and the “MIC of Antibiotics in the presence of ≤10 μM of 2” value is 2 mg/L. Besides, in [4] (WT PAO1), the “FICI in the presence of ≤10 μM of 3” value is reported as 1.02 and the “MIC of Antibiotics in the presence of ≤10 μM of 3” value was found to be 1 mg/L. The “FICI with compounds 1-3” value in [4] (antibiotic + compounds 1-3 at ≤10 μM (≤16 μg/mL), WT PAO1) turned out to be 2. Besides, the MIC alone result in [4] (antibiotic alone, WT PAO1 (Table 2)) is recorded as “Colistin (1) μg/ml”.
For orientation: MIC means the least concentration at which growth counts as inhibited. Take `CO/N=C(\C(=O)N[C@@H]1C(=O)N2C(C(=O)O)=C(COC(C)=O)CS[C@H]12)c1csc(N)n1` [Cefotaxime]: the “MIC of antibiotic + Compound 2 in PAO750” value in data set [5] (+ compound 2 ≤8.7 μM, PAO750) came out at 2 mg/L. Moreover, the “MIC of antibiotic alone in PAO750” value in data set [5] (antibiotic alone, PAO750 efflux-deficient) is 32 mg/L. In addition, the “MIC of antibiotic + Compound 2 in PAO200” value in data set [6] (+ compound 2 ≤8.7 μM, PAO200) came out at 4 mg/L. Moreover, the “MIC of antibiotic alone in PAO200” value in data set [6] (antibiotic alone, PAO200 efflux-deficient) was 8 mg/L. Also, the “MICCombination (antibiotic)” value in data set [7] (setting [20]) stood at 512 µg/mL; in [8] (setting [20]), 8 µg/mL; in [9] (setting [20]), 32 µg/mL; in data set [2] (MIC of antibiotic combined with compound 2, PA 101243), 128 µg/mL; in [10] (setting [20]) it was 8 µg/mL; in data set [11] (setting [20]), 512 µg/mL. Moreover, the “MICCombination (antibiotic)” value in data set [12] (setting [20]) amounted to 16 µg/mL; in data set [3] (MIC of antibiotic combined with compound 2, PA 91433), 8 µg/mL; in data set [14] (setting [20]) it was 512 µg/mL. Besides, the FICI in data set [7] (antibiotic + compound 2) was under 0.31; in [8] (antibiotic + compound 2), under 0.13; in data set [9] (antibiotic + compound 2), under 0.31; in data set [2] (antibiotic + compound 2, PA 101243), under 0.50; in data set [10] (antibiotic + compound 2), under 0.31; in data set [11] (antibiotic + compound 2) it was under 0.31. Further, the FICI in data set [12] (antibiotic + compound 2) is under 0.14; in data set [3] (antibiotic + compound 2, PA 91433), under 0.07; in [14] (antibiotic + compound 2) it was under 0.53. Moreover, the MICAntibiotic was found to be 2048 µg/mL in data set [7] (antibiotic alone); 128 µg/mL in data set [8] (antibiotic alone); 128 µg/mL in data set [9] (antibiotic alone); 256 µg/mL in data set [2] (antibiotic alone, PA 101243); 32 µg/mL in data set [10] (antibiotic alone); 2048 µg/mL in data set [11] (antibiotic alone). Also, the MICAntibiotic was found to be 128 µg/mL in data set [12] (antibiotic alone); 1024 µg/mL in data set [3] (antibiotic alone, PA 91433); 1024 µg/mL in data set [14] (antibiotic alone). Also, the FICAntibiotic in [7] (with compound 2) was determined as 0.250; in data set [8] (with compound 2), 0.063; in [9] (with compound 2), 0.250; in data set [2] (with compound 2, PA 101243), 0.500; in [10] (with compound 2) it was 0.250; in data set [11] (with compound 2), 0.250. The FICAntibiotic in data set [3] (with compound 2, PA 91433) is 0.008; in data set [14] (with compound 2), 0.500. Further, the “MIC of antibiotic + Compound 2 in PAO1” value in data set [4] (+ compound 2 ≤8.7 μM, PAO1) is 4 (4) μg/ml. Also, in [4] (Pseudomonas aeruginosa, PAO1, 18 h, antibiotic alone, WT PAO1 (Table 2), read-out: MIC alone), the MIC was 16 mg/L. Further, in data set [4] (WT PAO1), the “FICI in the presence of ≤10 μM of 1” value was determined as 0.13. Besides, in [4] (WT PAO1), the “MIC of Antibiotics in the presence of ≤10 μM of 1” value came to 2 mg/L. Besides, the “FICI in the presence of ≤10 μM of 2” value in data set [4] (WT PAO1) was 0.26. Moreover, the “MIC of Antibiotics in the presence of ≤10 μM of 2” value in data set [4] (WT PAO1) stood at 4 mg/L. Moreover, the “FICI in the presence of ≤10 μM of 3” value in data set [4] (WT PAO1) came to 0.27. Besides, the “MIC of Antibiotics in the presence of ≤10 μM of 3” value in data set [4] (WT PAO1) is 4 mg/L. In addition, the “MIC of antibiotic alone in PAO1” value in [4] (antibiotic alone, PAO1 wild-type (Table 4)) worked out at 16 mg/L. Also, the “resistant isolates reaching CLSI clinical breakpoint” value in data set [13] is “four out of ten”.
As to “5-O-(Dodecylcyclam)-tobramycin.9HCl [Compound 3]”, the cell viability entry in [15] is listed as “about 60%”. Also, the MIC in data set [16] is 64 mg/L; in data set [17] it was 32 mg/L; in data set [18] it was 16 mg/L; in [19], 64 mg/L.
